The experiment has as its target T1, Nicotinamide N-methyltransferase (NNMT) (Homo sapiens, UniProt P40261).
T1 sequence (P40261 1-264): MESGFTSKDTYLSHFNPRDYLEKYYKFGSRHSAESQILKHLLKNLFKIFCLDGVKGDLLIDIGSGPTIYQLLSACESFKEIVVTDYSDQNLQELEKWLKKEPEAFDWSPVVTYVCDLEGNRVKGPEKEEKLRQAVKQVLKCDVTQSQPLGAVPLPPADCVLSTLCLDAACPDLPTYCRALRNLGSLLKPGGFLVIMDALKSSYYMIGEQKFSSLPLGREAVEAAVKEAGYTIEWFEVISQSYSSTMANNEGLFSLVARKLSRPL
The experiment is described as follows: in vitro enzyme activity assay with purified NNMT. It is filed as biochemical.

For `C=C(C)[C@@]12O[C@@]3(/C=C/C=C/CCCCC)O[C@@H]1[C@@H]1[C@@H]4O[C@]4(CO)[C@@H](O)[C@]4(O)C(=O)C(C)=C[C@H]4[C@@]1(O3)[C@H](C)[C@H]2OC(C)=O` [YD, yuanhuadine], the IC50 – broadly, the concentration that inhibits the measured activity by half – stood at 400 nM.

The values are drawn from PMC5992482 (Molecular Therapy. Nucleic Acids, 2018).
